Measurements taken from patent US20250000836A1, “PARTICLE DELIVERY OF THYROID HORMONE RECEPTOR AGONISTS AND ANTAGONISTS” (CYTA THERAPEUTICS, INC., priority 2021, published 2025).
Marks after values point to notes of the source that are not given here.

What was measured:
[1] = system: Diet Induced Obese (DIO) mice; test: In vivo serum T4 and TSH analysis in Diet Induced Obese mice; details: 5, 10 or 20 μg/kg, 12-week and 24-week timepoints, compared to lean control and high fat control
Procedure: A Diet Induced Obese (DIO) mouse model was used to study the in vivo effects of the CGS26214-encapsulated nanogels with anionic group-modified backbone (CGS-ANG), referred to as “CYTA-001,” on serum T4 and TSH within the context of obesity.
The DIO mice were treated with either the non-liver targeted TRβ agonist, Axitirome (CGS26214), also referred to as “drug” in FIGS. 10A and B, or CYTA-001 at 5 μg/kg, 10 μg/kg, or 20 μg/kg for 12 weeks or 24 weeks. Treated DIO mice serum T4/TSH levels were compared to a lean control (LC control), or low fat diet, and to a high fat control (HF control). After each designated treatment period, all the mice were sacrificed unfasted by cardiac puncture after gradual-fill CO2 asphyxiation. Terminal blood samples were collected in SST-SERUM separator tubes for serum collection.
Serum was analyzed for thyroid hormone T4 and thyroid stimulating hormone (TSH) levels. […] This is an unexpected result as thyromimetics have not been observed for weight loss without some level of peripheral activation of the TRα or TRβ receptor. Peripheral activation of the TRα receptor is generally toxic and ideally avoided.

[2] = system: HFD-induced NASH, mouse liver; test: Liver histology (H&E, Masson's trichrome), 24 week study; format: in vivo, mice; details: groups CGS-2 / CNG-2 (10 μg/kg CGS26214 i.p. once per day, 5 weeks)
Procedure: To test the therapeutic effect of CGS-ANG in treating HFD-induced NASH, mice were fed HFD or LFD for 24 weeks (fully developed NASH model) and then randomly assigned to 9 groups with 8-10 mice per group before the medical treatments: (1), CD: mice fed the CD diet and treated with vehicle; (2), HFD: mice fed the HFD diet and treated with vehicle; (3), CGS-D1: mice fed the HFD diet and treated with 5 μg/kg of CGS26214; (4), CGS-D2: mice fed the HFD diet and treated with 10 μg/kg of CGS26214; (5) CGS-D3: mice fed the HFD diet and treated with 20 μg/kg of CGS 26214; (6) CNG-D1: mice fed the HFD diet and treated with CGS-ANG loaded with CGS26214 at a dose of 5 μg/kg; (7) CNG-D2: mice fed the HFD diet and treated with CGS-ANG loaded with CGS 26214 at a dose of 10 μg/kg; (8) CNG-D3: mice fed the HFD diet and treated with CGS-ANG loaded with CGS 26214 at a dose of 20 μg/kg; (9) BNG: mice fed the HFD diet and treated with BNG with the same dose of nanogels as group (8). All the treatments were injected intraperitoneally at the doses indicated once per day before the dark cycle of the day for 5 weeks. […]

[3] = system: Diet Induced Obese (DIO) mice; test: In vivo insulin resistance analysis (HOMA-IR) in DIO mice; details: 24 weeks HFD then 5-week dosing at 5, 10 or 20 μg/kg
Procedure: DIO mice were used to study the in vivo effects of CYTA-001 on insulin resistance within the context of obesity and diet. Homeostatic model assessment for insulin resistance (HOMA-IR) levels were measured in DIO mice that were conditioned on high fat diets (HFD) for 24 weeks prior to a 5-week dosing regimen. The HFD DIO mice were treated with either the non-liver targeted TRβ agonist, Axitirome (CGS26214), also referred to as “drug” in FIG. 11, or CYTA-001 at 5 μg/kg, 10 μg/kg, or 20 μg/kg dosages for 5 weeks.

[4] = Body weight and liver weight in the 12 week and 24 week HFD NASH models; format: in vivo, mice; details: the two models (12 week and 24 week HFD), i.p. once per day, 5 weeks
Procedure: All animal care and experimental procedures were approved by the Ethical Committee on Animal Care and Experimentation. Male C57BL/6J mice were purchased at 6 weeks of age from the Jackson Laboratory and housed in a controlled environment (12 h light/dark cycle, 21±2° C., humidity 50±10%). Mice were permitted ad libitum access to water and either 10 kcal % fat control diet (CD, Cat #D09100304, Research Diets) or 40 kcal % fat, 20 kcal % fructose and 2% cholesterol high fat diet (HFD, Cat #D09100310, Research Diets). […]
Body weight and food intake per cage were measured regularly during the study. […]

[5] = system: HFD-induced NASH (mild NASH model), male C57BL/6J mice; test: Serum biochemical analysis, mild NASH model (12 week HFD prior to dosing); format: in vivo; details: for ALT / AST / Cholesterol / HDL Cholesterol / LDL Cholesterol / Triglycerides: serum, 12 week HFD prior to dosing, 5 weeks, mean ± SE
Procedure: (§1) All animal care and experimental procedures were approved by the Ethical Committee on Animal Care and Experimentation. Male C57BL/6J mice were purchased at 6 weeks of age from the Jackson Laboratory and housed in a controlled environment (12 h light/dark cycle, 21±2° C., humidity 50±10%). Mice were permitted ad libitum access to water and either 10 kcal % fat control diet (CD, Cat #D09100304, Research Diets) or 40 kcal % fat, 20 kcal % fructose and 2% cholesterol high fat diet (HFD, Cat #D09100310, Research Diets).
To test the preventative effect of CGS-ANG in treating HFD-induced NASH, mice were fed high fat diet (HFD) or low fat diet (CD) for 12 weeks (mild NASH model) and then randomly assigned to 9 groups with 8-10 mice per group before treatment: (1), CD: mice fed the CD diet and treated with vehicle; (2), HFD: mice fed the HFD diet and treated with vehicle; (3), CGS-D1: mice fed the HFD diet and treated with 10 μg/kg of CGS26214 (suspended in saline with 1% DMSO); (4), CGS-D2: mice fed the HFD diet and treated with 20 μg/kg of CGS26214; (5) CGS-D3: mice fed the HFD diet and treated with 60 μg/kg of CGS26214; (6) CNG-D1: mice fed the HFD diet and treated with CGS-ANG loaded with CGS26214 at a dose of 10 μg/kg; (7) CNG-D2: mice fed the HFD diet and treated with CGS-ANG loaded with CGS26214 at a dose of 20 μg/kg; (8) CNG-D3: mice fed the HFD diet and treated with CGS-ANG loaded with CGS 26214 at a dose of 60 μg/kg; (9) BNG: mice fed the HFD diet and treated with BNG with the same dose of nanogels with group (8). All the treatments were injected intraperitoneally at the doses indicated once per day before the dark cycle of the day for 5 weeks.
(§2) After each designated treatment period, all the mice were sacrificed unfasted by cardiac puncture after gradual-fill CO2 asphyxiation. Terminal blood samples were collected in SST-SERUM separator tubes for serum collection. Epididymal fat pads (EFP), liver and hearts were removed and weighed. Data (weight gain, liver weight, heart weight, epididymal fat pad weight) from the 12 week and 24 week study are shown in FIGS. 3A-3D and 4A-4D, respectively. Portions of livers and hearts were collected and stored at −80° C. or fixed in 4% paraformaldehyde solution (Sigma-Aldrich, St. Louis, MO) for further analysis. Visual images of mice from each treatment groups at 24 weeks is shown in FIG. 5 while images of mice liver from each treatment group at 24 weeks is shown in FIG. 6.
(§3) Analysis of serum cholesterol (TC), high-density lipoprotein cholesterol (HDL-C), low-density lipoprotein cholesterol (LDL-C), triglycerides (TG), serum alanine aminotransferase (ALT) and aspartate aminotransferase (AST) was performed at Indexx BioAnalytics (North Grafton, MA) Plasma glucose, insulin, amyloid A (SAA), E-selectin and monocyte chemoattractant protein-1 (MCP-1) were quantified using commercial kits. Data from the 12 week and 24 week study are shown in Table 2 and Table 3, respectively.

[6] = system: HFD-induced NASH (fully developed NASH model), male C57BL/6J mice; test: Serum biochemical analysis, fully developed NASH model (24 week HFD prior to dosing); format: in vivo; details: 5 weeks, mean ± SE
Procedure: as §1
To test the therapeutic effect of CGS-ANG in treating HFD-induced NASH, mice were fed HFD or LFD for 24 weeks (fully developed NASH model) and then randomly assigned to 9 groups with 8-10 mice per group before the medical treatments: (1), CD: mice fed the CD diet and treated with vehicle; (2), HFD: mice fed the HFD diet and treated with vehicle; (3), CGS-D1: mice fed the HFD diet and treated with 5 μg/kg of CGS26214; (4), CGS-D2: mice fed the HFD diet and treated with 10 μg/kg of CGS26214; (5) CGS-D3: mice fed the HFD diet and treated with 20 μg/kg of CGS 26214; (6) CNG-D1: mice fed the HFD diet and treated with CGS-ANG loaded with CGS26214 at a dose of 5 μg/kg; (7) CNG-D2: mice fed the HFD diet and treated with CGS-ANG loaded with CGS 26214 at a dose of 10 μg/kg; (8) CNG-D3: mice fed the HFD diet and treated with CGS-ANG loaded with CGS 26214 at a dose of 20 μg/kg; (9) BNG: mice fed the HFD diet and treated with BNG with the same dose of nanogels as group (8). All the treatments were injected intraperitoneally at the doses indicated once per day before the dark cycle of the day for 5 weeks.
as §2, §3

[7] = 10 μg/kg CGS26214 i.p. once per day
[8] = 20 μg/kg CGS26214 i.p. once per day
[9] = 60 μg/kg CGS26214 i.p. once per day
[10] = 5 μg/kg CGS26214 i.p. once per day

CCOC(=O)C(=O)Nc1cc(C)c(Oc2ccc(O)c(C(O)c3ccc(F)cc3)c2)c(C)c1 (racemic) [CGS26214, ethyl (+−)-((4-(3-((4-fluorophenyl)hydroxymethyl)-4-hydroxyphenoxy)-3,5-dimethylphenyl)amino)oxoacetate]
change in serum TSH [1]: statistically significant change
fibrosis and collagen deposition (Masson's trichrome staining) [2]: show signs of fibrosis and collagenous tissue fiber formation
steatosis, inflammation and ballooning degeneration (hematoxylin-eosin staining) [2]: show macrovesicular and microvesicular steatosis, inflammation, and ballooning degeneration
insulin resistance (HOMA-IR) [3]: not observed to produce a significant effect
effects on body weight [4]: only moderate effects
effects on liver weight [4]: only moderate effects
ALT [5, 7]: 196 ± 26
AST [5, 7]: 205 ± 27
Cholesterol [5, 7]: 158.2 ± 19.2 mg/dL
HDL Cholesterol [5, 7]: 87.2 ± 9.6 mg/dL
LDL Cholesterol [5, 7]: <7 mg/dL
Triglycerides [5, 7]: 87.6 ± 3.5 mg/dL
ALT [5, 8]: 217 ± 28
AST [5, 8]: 252 ± 47
Cholesterol [5, 8]: 155.8 ± 11.8 mg/dL
HDL Cholesterol [5, 8]: 76.8 ± 5.8 mg/dL
LDL Cholesterol [5, 8]: <7 mg/dL
Triglycerides [5, 8]: 83.5 ± 10 mg/dL
ALT [5, 9]: 279 ± 68
AST [5, 9]: 303 ± 49
Cholesterol [5, 9]: 105.5 ± 23.7 mg/dL
HDL Cholesterol [5, 9]: 53.1 ± 10.8 mg/dL
LDL Cholesterol [5, 9]: <7 mg/dL
Triglycerides [5, 9]: 78.7 ± 7.2 mg/dL
reversing or preventing changes in biochemical markers induced by the high-fat diet ([5]; summary of Tables 2 and 3 (12 week and 24 week models), compared with LC control): much less effective
ALT [6, 10]: 276 ± 20^d
AST [6, 10]: 319 ± 15^ceg
Cholesterol [6, 10]: 278.9 ± 20.2^cef mg/dL
LDL Cholesterol [6, 10]: 18.4 ± 2.3 mg/dL
ALT [6, 7]: 257 ± 20^cd
Cholesterol [6, 7]: 236.8 ± 16.6^cd mg/dL
HDL Cholesterol [6, 7]: 113.4 ± 5.5^ab mg/dL
LDL Cholesterol [6, 7]: 15.3 ± 1.1 mg/dL
Triglycerides [6, 7]: 94.7 ± 9.5^cdf mg/dL
ALT [6, 8]: 225 ± 10^cd
AST [6, 8]: 247 ± 17^de
Cholesterol [6, 8]: 196.9 ± 10.2^ade mg/dL
HDL Cholesterol [6, 8]: 96.3 ± 3.9^ac mg/dL
LDL Cholesterol [6, 8]: 11.4 ± 1.2 mg/dL
Triglycerides [6, 8]: 90.3 ± 5.7^ad mg/dL
